How the values were obtained:
MCF-7 cells = experiment: Hormonal (agonistic) activity: growth stimulation; format: cell-based, human; details: MCF-7, low concentrations (<100 nM), data not shown
Description: However, both agonistic properties and SERD effects can be excluded.

TSA-201 cells = experiment: MTT assay of metabolic activity, noncancerous TSA-201; format: cell-based, human; details: 72 h
Protocol: The GW7604-Alk-PtCl3 complexes (with exclusion of GW7604-Prop-PtCl3) were investigated for cytotoxic effects in SKBr3 (ER-negative, COX-2-positive, Figure 6), MCF-7 (ERα-positive, COX-negative, Figure 6), and noncancerous TSA-201 (human embryonal kidney) cells at concentrations of 10–30 μM using an established MTT (3-(4,5-dimethylthiazol-2-yl)-2,5-diphenyltetrazolium bromide) assay.[60],[69]
After incubation for 72 h, the amounts of surviving, metabolically active cells were quantified based on their ability to transform the water-soluble yellow dye MTT to a purple formazan, which can be analyzed by UV–vis spectroscopy.
The exponentially growing cells were seeded at a density of 1750 (MCF-7), 2000 (SKBr3), and 1250 (TSA-201) cells/well into clear flat-bottom 96-well plates in triplicate. Following 24 h of incubation at 37 °C in a humidified atmosphere (5% CO2/95% air), the compounds [freshly prepared stock solutions in DMF, diluted with DMEM to the desired concentration (final DMF concentration of 0.1% (v/v))] were added to reach the indicated concentrations. After another 72 h of incubation, the cellular metabolic activity was measured employing an MTT assay. By adding predissolved MTT reagent in PBS at a final concentration of 0.5 mg/mL, the metabolic activity can be determined via an enzymatic conversion to a purple formazan salt. After 3 h, the medium was aspirated, and 200 μL of DMSO was added to dissolve the formed formazan crystals. The absorbance was measured at 570 and 690 nm (turbidity assessment) using an EnSpire plate reader (PerkinElmer, Waltham, MA, USA). Solvent-treated cells without a compound served as the positive control. Metabolic activity was calculated by the following equation [drawing 1]

With `CCC(=C(c1ccc(O)cc1)c1ccc(C=CC(=O)OCCC[CH]2[CH2][Pt-]2([Cl])([Cl])[Cl])cc1)c1ccccc1.[K+]` (mixture of isomers) [GW7604-Pent-PtCl3, Potassium trichlorido[η^2-(pent-4-en-1-yl (E)-3-(4-((E/Z)-1-(4-hydroxyphenyl)-2-phenylbut-1-en-1-yl)phenyl)acrylate)]platinate(II)] the “agonistic effect: stimulation of growth” value (MCF-7 cells) was “neither stimulated the growth”, the IC50 (TSA-201 cells; MTT, read-out: IC50 TSA-210) was > 30 µM and the “decrease of cell viability” value (TSA-201 cells; TSA-201, 30 μM) was “about 20%”.

— paper PMC10983001, “Development of Cytotoxic GW7604-Zeise’s Salt Conjugates as Multitarget Compounds with Selectivity for Estrogen Receptor- Positive Tumor Cells” (Journal of Medicinal Chemistry, 2024)
